B1: mouse fibroblast growth factor 21: protein consisting of the amino acid sequence of SEQ ID NO: 1, mouse fibroblast growth factor 21 (protein, listed as Mus musculus)
chain: MEWMRSRVGTLGLWVRLLLAVFLLGVYQAYPIPDSSPLLQFGGQVRQRYLYTDDDQDTEAHLEIREDGTVVGAAHRSPESLLELKALKPGVIQILGVKASRFLCQQPDGALYGSPHFDPEACSFRELLLEDGYNVYQSEAHGLPLRLPQKDSPNQDATSWGPVRFLPMPGLLHEPQDQAGFLPPEPPDVGSSDPLSMVEPLQGRSPSYAS

Key:
Format in all cases: cell-based, mouse
[1] = test system: cells expressing the myosin-heavy chain IIb protein; assay: Screening method of substances involved in a metabolic shift: myotube cells from immortalized muscle stem cells, mCherry fluorescence; settings: for number of myotube cells that generate fluorescence of mCherry (cells expressing myosin-heavy chain IIb): compared to the negative control; for area of cells expressing the myosin-heavy chain IIb protein: two days treatment
Experimental: (§1) In this Example, 27 test compounds were tested by the screening method of substances involved in a metabolic shift using the immortalized muscle stem cells (satellite cells) prepared in Example 2.
(§2) The immortalized muscle stem cells (1×10^5) were seeded on a 60 mm dish or the immortalized muscle stem cells (2×10^3) were seeded on a 96 well plate. The cells were cultured in a DMEM containing 20% FBS, bFGF (10 ng/mL), and IFNy (10 ng/mL) at 33° C. for 1 day, and then, cultured in a DMEM containing 5% HS at 37° C. for 3 days. Subsequently, test substances were serially diluted by a DMEM containing 5% horse serum at an appropriate dilution rate, and the diluted substances were added to the dishes respectively. After two days treatment, fluorescences of YFP, Sirius, mCherry, and mCerulean in the living cells were observed using a fluorescence microscope, and the number of cells, which generate the respective fluorescence, was measured.
(§3) In this example, additional test compounds were tested using the immortalized muscle stem cells (satellite cells) prepared in Example 2. The screening method of substances involved in a metabolic shift was performed by repeating a procedure of Example 3.

[2] = test system: cells expressing the myosin-heavy chain I protein; assay: Screening method of substances involved in a metabolic shift: myotube cells from immortalized muscle stem cells, YFP fluorescence; settings: for area of cells expressing the myosin-heavy chain I protein: two days treatment; for number of myotube cells that generate fluorescence of YFP (myosin-heavy chain I): compared to the negative control
Experimental: as §1, §2, §3

[3] = test system: immortalized muscle stem cells (satellite cells); assay: Proliferation inhibition screening method using satellite cells; settings: 5 nM, five days of culturing, versus control without rapamycin
Experimental: The rapamycin was obtained by the metabolic shift screening method in Example 3. In this Example, whether or not the rapamycin can be screened by the proliferation inhibition screening method using satellite cells was examined.
The immortalized muscle stem cells (1×10^4) were seeded on a 35 mm dish. The cells were cultured in a DMEM containing 20% FBS, bFGF (lOng/mL), and IFNγ (10 ng/mL) at 33° C. for 1 day, and then the rapamycin was diluted to a concentration of 5 nM by a DMEM containing 5% FBS, and the diluted rapamycin was added to the dish. The number of cells was counted after five days of culturing. […] The term “Control” means negative control in which the rapamycin was not added. The proliferation of satellite cells was inhibited by adding rapamycin.

Molecule | number of myotube cells that generate fluorescence of mCherry (cells expressing myosin-heavy chain IIb) [1] | area of cells expressing the myosin-heavy chain I protein ([2]; 1 nM, negative control 28.4%) | area of cells expressing the myosin-heavy chain I protein ([2]; 10 nM, negative control 28.4%) | area of cells expressing the myosin-heavy chain I protein ([2]; 100 nM, negative control 28.4%) | number of myotube cells that generate fluorescence of YFP (myosin-heavy chain I) [2] | area of cells expressing the myosin-heavy chain IIb protein ([1]; 100 nM, negative control 44.5%) | area of cells expressing the myosin-heavy chain IIb protein ([1]; 500 nM, negative control 44.5%) | area of cells expressing the myosin-heavy chain IIb protein ([1]; 4 nM, negative control 41.8%) | area of cells expressing the myosin-heavy chain I protein ([2]; 4 nM, negative control 25.3%) | proliferation of satellite cells (number of cells) [3] | area of cells expressing the myosin-heavy chain IIb protein ([1]; 500 ng/mL, negative control 36.2%) | area of cells expressing the myosin-heavy chain I protein ([2]; 100 ng/mL, negative control 19.5%) | area of cells expressing the myosin-heavy chain I protein ([2]; 500 ng/mL, negative control 19.5%)
C[C@H](Cc1ccc2c(c1)OC(C(=O)[O-])(C(=O)[O-])O2)NC[C@H](O)c1cccc(Cl)c1.[Na+].[Na+] [CL316243] | remains static | 49.3% | 53.8% | 57.8% | increased | – | – | – | – | – | – | – | –
N[C@@H](Cc1cc(I)c(Oc2ccc(O)c(I)c2)c(I)c1)C(=O)O [T3, triiodothyronine] | increased | – | – | – | – | 71.3% | 70.0% | – | – | – | – | – | –
CO[C@H]1C[C@@H]2CC[C@@H](C)[C@@](O)(O2)C(=O)C(=O)N2CCCC[C@H]2C(=O)O[C@H]([C@H](C)C[C@@H]2CC[C@@H](O)[C@H](OC)C2)CC(=O)[C@H](C)/C=C(\C)[C@@H](O)[C@@H](OC)C(=O)[C@H](C)C[C@H](C)/C=C/C=C/C=C/1C [rapamycin] | decreased | – | – | – | increased | – | – | 8.4% | 60.9% | inhibited | – | – | –
IL-15: IL-15, one of the test substances | increased | – | – | – | increased | – | – | – | – | – | 53.0% | 35.0% | 36.1%
B1 | remains static | 40.6% | 48.0% | 54.9% | increased | – | – | – | – | – | – | – | –

From patent US9618502B2, “Muscle stem cell or myoblast, method for screening substances that participate in metabolic conversion using same, and pharmaceutical composition comprising substance obtained from said screening method” (TOKYO METROPOLITAN GERIATRIC HOSPITAL AND INSTITUTE OF …, priority 2013, dated 2017)
